Test results published in the supplement of paper PMC10307832.

Experiments:
Assay in all cases: relative viability (nuclei count vs DMSO), 5 days (fraction); higher = more cells survive
RO-3306 + Lapatinib = compound: C1=CC2=C(C=CC(=C2)C=C3C(=O)NC(=NCC4=CC=CS4)S3)N=C1 [RO-3306] + CS(=O)(=O)CCNCc1ccc(-c2ccc3ncnc(Nc4ccc(OCc5cccc(F)c5)c(Cl)c4)c3c2)o1 [Lapatinib] (partner 2 µM)
In short: (§1)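 Each reported value is a median over duplicate plates. It expresses relative viability: treated-well nuclei count divided by vehicle-well nuclei count. Lung cancer cell lines in 1536-well plates were dosed by pin tool a day after seeding, alone with one drug or with a fixed anchor-drug dose plus five library-drug doses (not always all listed) in √10 steps, and nuclei were counted after 5 days.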

RO-3306 + Luminespib = compound: C1=CC2=C(C=CC(=C2)C=C3C(=O)NC(=NCC4=CC=CS4)S3)N=C1 [RO-3306] + CCNC(=O)c1noc(-c2cc(C(C)C)c(O)cc2O)c1-c1ccc(CN2CCOCC2)cc1 [Luminespib] (partner 0.01 µM)
In short: as §1

[1] = compound: O=S(=O)(c1ccccc1)N(CC(F)(F)F)c1ccc(C(O)(C(F)(F)F)C(F)(F)F)cc1 + Cc1nc(NC(=O)N2CCC[C@H]2C(N)=O)sc1-c1ccnc(C(C)(C)C(F)(F)F)c1 [Alpelisib] (partner 2 µM)
In short: as §1

RO-3306 + Foretinib = compound: C1=CC2=C(C=CC(=C2)C=C3C(=O)NC(=NCC4=CC=CS4)S3)N=C1 [RO-3306] + COc1cc2c(Oc3ccc(NC(=O)C4(C(=O)Nc5ccc(F)cc5)CC4)cc3F)ccnc2cc1OCCCN1CCOCC1 [Foretinib] (partner 0.25 µM)
In short: as §1

Row | Cell Line | relative viability (RO-3306 + Lapatinib; first compound 0.01 µM) | relative viability (RO-3306 + Lapatinib; first compound 0.03162 µM) | relative viability (RO-3306 + Lapatinib; first compound 0.1 µM) | relative viability (RO-3306 + Lapatinib; first compound 0.3162 µM) | relative viability (RO-3306 + Lapatinib; first compound 1 µM) | relative viability (RO-3306 + Luminespib; first compound 0.01 µM) | relative viability (RO-3306 + Luminespib; first compound 0.03162 µM) | relative viability (RO-3306 + Luminespib; first compound 0.1 µM) | relative viability (RO-3306 + Luminespib; first compound 0.3162 µM) | relative viability (RO-3306 + Luminespib; first compound 1 µM) | relative viability ([1]; first compound 0.8 µM) | relative viability ([1]; first compound 2.53 µM) | relative viability ([1]; first compound 8 µM) | relative viability (RO-3306 + Foretinib; first compound 0.01 µM) | relative viability (RO-3306 + Foretinib; first compound 0.03162 µM) | relative viability (RO-3306 + Foretinib; first compound 0.1 µM) | relative viability (RO-3306 + Foretinib; first compound 0.3162 µM) | relative viability (RO-3306 + Foretinib; first compound 1 µM)
1 | NCI-H1395 | 0.817 | 0.925 | 0.824 | 1.08 | 0.826 | 0.915 | 0.878 | 0.622 | 0.653 | 0.519 | 0.936 | 1.02 | 1.29 | 0.981 | 0.902 | 0.895 | 0.945 | 0.824
2 | NCI-H1437 | 0.835 | 0.543 | 0.788 | 0.794 | 0.772 | 1.17 | 1.02 | 1.09 | 1.11 | 1.17 | 0.904 | 0.771 | 0.718 | 1.38 | 1.21 | 1.28 | 1.28 | 1.25
3 | NCI-H1563 | 1.03 | 0.911 | 0.862 | 0.979 | 0.922 | 0.516 | 0.519 | 0.6 | 0.533 | 0.507 | 0.923 | 0.833 | 0.788 | 0.847 | 1.03 | 0.881 | 0.956 | 0.939
4 | NCI-H1651 | 0.839 | 0.648 | 0.77 | 0.972 | 0.644 | 1.21 | 0.873 | 0.857 | 1.03 | 0.802 | 0.94 | 0.972 | 0.89 | 0.986 | 0.723 | 0.879 | 0.8 | 0.823
5 | NCI-H1666 | 0.593 | 0.407 | 0.609 | 0.61 | 0.457 | 0.929 | 0.883 | 1.05 | 1.05 | 0.891 | 0.776 | 0.868 | 0.892 | 0.936 | 0.891 | 0.905 | 1.04 | 0.935
6 | NCI-H1734 | 1.06 | 0.834 | 1.03 | 1.07 | 0.808 | 0.168 | 0.172 | 0.205 | 0.195 | 0.171 | 0.845 | 0.626 | 0.708 | 0.759 | 0.746 | 0.893 | 0.924 | 0.804
7 | NCI-H1755 | 1.2 | 1.04 | 1.03 | 1.04 | 1.01 | 0.435 | 0.3 | 0.275 | 0.269 | 0.484 | 0.981 | 0.91 | 0.83 | 0.939 | 0.973 | 0.921 | 0.927 | 0.936
8 | NCI-H1793 | 0.794 | 0.409 | 0.641 | 0.753 | 0.636 | 0.129 | 0.162 | 0.195 | 0.205 | 0.191 | 0.585 | 0.491 | 0.578 | 0.654 | 0.265 | 0.627 | 0.748 | 0.735
9 | NCI-H1915 | 1.07 | 0.973 | 0.969 | 0.945 | 0.446 | 0.975 | 0.493 | 0.879 | 0.805 | 0.749 | 1.09 | 1.03 | 1.02 | 1.14 | 0.891 | 1.15 | 1.11 | 1.23
10 | NCI-H1944 | 0.774 | 0.674 | 0.802 | 0.909 | 0.545 | 0.83 | 0.667 | 0.681 | 0.62 | 0.678 | 0.802 | 0.837 | 0.738 | 0.966 | 0.884 | 0.818 | 0.92 | 0.915
11 | NCI-H1975 | 1.05 | 0.559 | 0.787 | 0.919 | 0.752 | 0.443 | 0.142 | 0.242 | 0.175 | 0.294 | 0.616 | 0.581 | 0.594 | 0.975 | 1 | 1.02 | 0.985 | 0.793
12 | NCI-H1993 |  | 0.747 | 0.74 | 0.795 | 0.839 | 0.792 | 0.697 | 0.913 | 0.799 | 0.746 | 0.707 | 0.674 | 0.77 | 0.924 | 0.794 | 0.789 | 0.727 | 0.809
13 | NCI-H2009 | 0.805 | 0.887 | 0.867 | 1.07 | 0.872 | 1.1 | 0.979 | 1.07 | 0.992 | 0.976 | 1.09 | 1.02 | 0.964 | 1.32 | 1.24 | 1.2 | 1.19 | 1.2
14 | NCI-H2023 | 0.769 | 0.645 | 0.822 | 1.04 | 0.683 | 0.681 | 0.723 | 0.643 | 0.534 | 0.396 | 0.574 | 0.606 | 0.506 | 1.17 | 0.71 | 0.818 | 0.702 | 0.943
15 | NCI-H2085 | 0.726 | 0.746 | 0.798 | 0.727 | 0.757 | 0.377 | 0.499 | 0.517 | 0.437 | 0.46 | 0.982 | 0.885 | 0.969 | 0.866 | 0.766 | 0.78 | 1.11 | 0.94
